Broadly, the IC50 is the concentration that gives 50% inhibition.

Experiment [1] deals with T1, aldosterone synthase (CYP11B2) (Macaca fascicularis, UniProt A0A2K5UPL9).
T1 construct: cynomolgus adrenal gland mitochondria as the source of aldosterone synthase (CYP11B2); from tissue; host or cells: cynomolgus monkey adrenal gland mitochondria
T1 sequence (A0A2K5UPL9 1-503): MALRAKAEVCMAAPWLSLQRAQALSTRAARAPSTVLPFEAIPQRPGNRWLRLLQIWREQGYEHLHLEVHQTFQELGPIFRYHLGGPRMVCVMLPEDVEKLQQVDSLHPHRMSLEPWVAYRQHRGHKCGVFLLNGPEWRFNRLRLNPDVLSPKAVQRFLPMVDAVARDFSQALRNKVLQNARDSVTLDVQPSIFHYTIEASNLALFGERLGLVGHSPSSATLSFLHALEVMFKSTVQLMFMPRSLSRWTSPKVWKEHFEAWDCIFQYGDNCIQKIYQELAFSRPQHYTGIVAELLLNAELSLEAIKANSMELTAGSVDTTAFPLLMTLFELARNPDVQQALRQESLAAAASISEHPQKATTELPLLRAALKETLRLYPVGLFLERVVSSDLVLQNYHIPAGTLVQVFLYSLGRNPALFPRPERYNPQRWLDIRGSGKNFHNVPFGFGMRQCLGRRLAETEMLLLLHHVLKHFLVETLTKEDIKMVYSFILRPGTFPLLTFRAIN
Nature of the experiment: Inhibition of aldosterone synthase (cynomolgus adrenal mitochondria, aldosterone by mass spectrometry). Type of experiment: biochemical, cynomolgus monkey. As to conditions: cynomolgus adrenal gland mitochondria, 2 μM corticosterone substrate, 90 minutes at 37° C. As to the method: (§1) The aldosterone synthase and cortisol synthase inhibition assays employ cynomolgus adrenal gland mitochondria as the source of aldosterone synthase (CYP11B2) and cortisol synthase (CYP11B1). Mitochondria are prepared from frozen cynomolgus monkey adrenal glands according to Method A described in by J. D. McGarry et al. (Biochem. J., 1983, 214, 21-28), with a final resuspension in the AT buffer described in R. Yamaguchi et al. (Cell Death and Differentiation, 2007, 14, 616-624), frozen as aliquots in liquid nitrogen and stored at −80° C. until use. Activity of CYP11B2 and CYP11B1 in these preparations is defined as the amount of enzyme that generates 1 pmol of product in one hour under the conditions described.
Assays are performed in 96-well format in a final volume of 60 µL/well, containing 100 mM potassium phosphate, pH 7.4, 1% (v/v) DMSO, and additionally, 2 μM of corticosterone and 50 units of CYP11B2 activity. Reactions are started by the addition of NADPH to 1 mM and allowed to proceed for 90 minutes at 37° C. Reactions are terminated by the addition of 60 μL of MeCN containing an internal standard for mass spectrometry. One hundred microliters are then transferred to a glass filter plate and centrifuged at 570×g for 5 minutes and the filtrate is collected. Reaction product aldosterone is quantified by mass spectrometry. To determine the assay blank value (0% activity), NADPH is omitted from some reactions.
Dose dependent inhibition is quantified by the inclusion of compound at various concentrations. Maximum activity (100%) is defined by reactions containing NADPH, but without compound. Activities at each concentration are expressed as a percentage of the maximum activity (y-axis) and plotted against concentration of compound (x-axis) and the concentration corresponding to 50% activity (IC50) determined using the XLFit curve-fitting program using a 4-parameter logistic model.

Experiment [2] concerns the target cortisol synthase (CYP11B1) (Macaca fascicularis, UniProt A0A2K5ULY1). Briefly: Inhibition of cortisol synthesis (cynomolgus adrenal mitochondria, cortisol by mass spectrometry). It is filed as biochemical, cynomolgus monkey. Particulars: cynomolgus adrenal gland mitochondria, 11-deoxycortisol as substrate, cortisol measured as product; read-out: CYP11B1 Inhibition IC50. The protocol: as §1, with “described. Dose dependent inhibition is quantified by the inclusion of compound at various concentrations. Maximum activity (100%) is defined by reactions containing NADPH, but without compound. Activities at each concentration are expressed as a percentage of the maximum activity (y-axis) and plotted against concentration of compound (x-axis) and the concentration corresponding to 50% activity (IC50) determined using the XLFit curve-fitting program using a 4-parameter logistic model. Assays are performed as for aldosterone synthase except for the use of 150 units of CYP11B1, 11-deoxycortisol as substrate and cortisol measured as product.” for “described.”

`CC1(C)CC(=O)c2c(noc2Cc2ccc(C(=O)N3CC[C@H](S(C)(=O)=O)C3)cc2)C1` [Cpd 53, 3-[4-((S)-3-Methanesulfonyl-pyrrolidine-l-carbonyl)-benzyl]-6,6-dimethyl-6,7-dihydro-5H-benzo[c]isoxazol-4-one]: the IC50 is 0.042 µM in experiment [1] and 6.7 µM in experiment [2].
As for `CC1(C)CC(=O)c2c(noc2Cc2ccc(C(=O)NCCS(N)(=O)=O)cc2)C1` [Cpd 54, 4-(6,6-Dimethyl-4-oxo-4,5,6,7-tetrahydro-benzo[c]isoxazol-3-ylmethyl)-N-(2-sulfamoyl-ethyl)-benzamide], the IC50 in experiment [1] was 0.058 µM; in experiment [2] it was 2.5 µM.
For `CCN(CCO)C(=O)c1ccc(Cc2onc3c2C(=O)CC(C)(C)C3)cc1` [Cpd 55, 4-(6,6-Dimethyl-4-oxo-4,5,6,7-tetrahydro-benzo[c]isoxazol-3-ylmethyl)-N-ethyl-N-(2-hydroxy-ethyl)-benzamide], the IC50 was 0.068 µM in experiment [1] and 5.4 µM in experiment [2].
Turning to `COCCN(C)C(=O)c1ccc(Cc2onc3c2C(=O)CC(C)(C)C3)cc1` [Cpd 56, 4-(6,6-Dimethyl-4-oxo-4,5,6,7-tetrahydro-benzo[c]isoxazol-3-ylmethyl)-N-(2-methoxy-ethyl)-N-methyl-benzamide], the concentration for half-maximal inhibition (IC50) was determined as 0.069 µM in experiment [1] and 11 µM in experiment [2].
With `O=C1CC(Cc2ccccc2)Cc2noc(Cc3ccc(C(=O)N4CC[C@@H](O)C4)cc3)c21` (stereo partly drawn) [Cpd 57, 6-Benzyl-3-[4-((R)-3-hydroxy-pyrrolidine-l-carbonyl)-benzyl]-6,7-dihydro-5H-benzo[c]isoxazol-4-one], the figures for the IC50 in experiment [1] and in experiment [2] were 0.08 µM and 2.6 µM, respectively.
As for `COCCNC(=O)c1ccc(Cc2onc3c2C(=O)CC(C)(C)C3)cc1` [Cpd 58, 4-(6,6-Dimethyl-4-oxo-4,5,6,7-tetrahydro-benzo[c]isoxazol-3-ylmethyl)-N-(2-methoxy-ethyl)-benzamide], the IC50 in experiment [1] came out at 0.089 µM; in experiment [2], 3.4 µM.
`CN(CCO)C(=O)c1ccc(Cc2onc3c2C(=O)CC(C)(C)C3)cc1` [Cpd 59, 4-(6,6-Dimethyl-4-oxo-4,5,6,7-tetrahydro-benzo[c]isoxazol-3-ylmethyl)-N-(2-hydroxy-ethyl)-N-methyl-benzamide]: the half-inhibitory concentration (IC50) came to 0.092 µM in experiment [1] and 11 µM in experiment [2].
The corresponding values for `CC1(C)CC(=O)c2c(noc2Cc2ccc(C(=O)N3CCC[C@H](O)C3)cc2)C1` [Cpd 60, 3-[4-((S)-3-Hydroxy-piperidine-1-carbonyl)-benzyl]-6,6-dimethyl-6,7-dihydro-5H-benzo[c]isoxazol-4-one] are 0.094 µM and 5.9 µM.
Regarding `CC1(C)CC(=O)c2c(noc2Cc2ccc(C(=O)NCCS(C)(=O)=O)cc2)C1` [Cpd 61, 4-(6,6-Dimethyl-4-oxo-4,5,6,7-tetrahydro-benzo[c]isoxazol-3-ylmethyl)-N-(2-methanesulfonyl-ethyl)-benzamide], the results for the IC50 in experiment [1] and in experiment [2] were 0.091 µM and 7.4 µM, respectively.
The corresponding values for `CC1(C)CC(=O)c2c(noc2Cc2ccc(C(=O)N3CCNC(=O)C3)cc2)C1` [Cpd 62, 6,6-Dimethyl-3-[4-(3-oxo-piperazine-1-carbonyl)-benzyl]-6,7-dihydro-5H-benzo[c]isoxazol-4-one] are 0.098 µM and 20 µM.
Regarding `O=C1CC(CC2CC2)Cc2noc(Cc3ccc(C(=O)N4CC[C@@H](O)C4)cc3)c21` (stereo partly drawn) [Cpd 63, 6-Cyclopropylmethyl-3-[4-((R)-3-hydroxy-pyrrolidine-1-carbonyl)-benzyl]-6,7-dihydro-5H-benzo[c]isoxazol-4-one], the IC50 was 0.11 µM in experiment [1] and 4.1 µM in experiment [2].
The corresponding values for `CN(CCS(C)(=O)=O)C(=O)c1ccc(Cc2onc3c2C(=O)CC(C)(C)C3)cc1` [Cpd 64, 4-(6,6-Dimethyl-4-oxo-4,5,6,7-tetrahydro-benzo[c]isoxazol-3-ylmethyl)-N-(2-methanesulfonyl-ethyl)-N-methyl-benzamide] are 0.11 µM and 9.3 µM.
